pIC50: −log10 of the molar value.
Target: Tyrosine-protein kinase ABL2 (Homo sapiens) (UniProt P42684)
Assay: inhibitors of human ABL2 (Arg) tyrosine kinase activity – biochemical, Z'-LYTE, FRET readout, direct format, dose response (AID 1671257)
Conditions: Z'-LYTE FRET kinase assay, recombinant ABL2

Tyrosine-protein kinase ABL2 (Homo sapiens), sequence (P42684 whole entry, looked up): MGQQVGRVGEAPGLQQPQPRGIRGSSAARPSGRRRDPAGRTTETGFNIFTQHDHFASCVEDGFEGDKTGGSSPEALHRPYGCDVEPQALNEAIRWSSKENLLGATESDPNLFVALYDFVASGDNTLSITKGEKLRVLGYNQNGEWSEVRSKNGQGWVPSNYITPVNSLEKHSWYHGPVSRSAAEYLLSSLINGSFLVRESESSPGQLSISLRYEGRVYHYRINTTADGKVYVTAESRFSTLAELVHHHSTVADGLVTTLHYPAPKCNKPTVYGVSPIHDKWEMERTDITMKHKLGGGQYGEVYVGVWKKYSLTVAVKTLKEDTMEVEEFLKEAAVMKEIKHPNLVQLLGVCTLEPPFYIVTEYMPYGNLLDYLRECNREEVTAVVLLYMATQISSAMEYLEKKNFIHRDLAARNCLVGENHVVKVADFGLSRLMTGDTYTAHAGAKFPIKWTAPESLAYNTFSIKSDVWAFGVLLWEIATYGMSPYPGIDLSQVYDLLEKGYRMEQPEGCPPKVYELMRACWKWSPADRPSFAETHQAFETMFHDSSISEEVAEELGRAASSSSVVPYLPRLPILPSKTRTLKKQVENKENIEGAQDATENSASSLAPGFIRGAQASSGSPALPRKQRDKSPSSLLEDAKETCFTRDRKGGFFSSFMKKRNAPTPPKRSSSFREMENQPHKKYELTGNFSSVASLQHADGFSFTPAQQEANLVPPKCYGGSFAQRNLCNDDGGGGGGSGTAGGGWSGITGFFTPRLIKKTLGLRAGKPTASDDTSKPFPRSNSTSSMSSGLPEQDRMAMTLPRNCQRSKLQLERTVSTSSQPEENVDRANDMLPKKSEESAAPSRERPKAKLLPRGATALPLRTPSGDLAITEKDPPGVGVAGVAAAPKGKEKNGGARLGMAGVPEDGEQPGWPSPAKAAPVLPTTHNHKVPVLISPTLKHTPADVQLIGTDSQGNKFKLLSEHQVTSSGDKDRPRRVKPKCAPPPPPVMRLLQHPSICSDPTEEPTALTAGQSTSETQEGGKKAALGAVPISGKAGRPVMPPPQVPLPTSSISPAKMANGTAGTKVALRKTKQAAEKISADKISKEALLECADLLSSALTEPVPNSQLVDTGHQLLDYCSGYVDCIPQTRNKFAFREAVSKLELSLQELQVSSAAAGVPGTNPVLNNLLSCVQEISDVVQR

pIC50: 5.98
SMILES: COc1cc2ncnc(Nc3cccc(Cl)c3)c2cc1OC

From PubChem BioAssay AID1671257
